Biological target: ATP-dependent translocase ABCB1 (Homo sapiens, UniProt P08183)
Test: TP_TRANSPORTER: transepithelial transport in Caco2 cells
Format: functional, cell-based
Conditions: caco-2

ATP-dependent translocase ABCB1, sequence (P08183 whole entry): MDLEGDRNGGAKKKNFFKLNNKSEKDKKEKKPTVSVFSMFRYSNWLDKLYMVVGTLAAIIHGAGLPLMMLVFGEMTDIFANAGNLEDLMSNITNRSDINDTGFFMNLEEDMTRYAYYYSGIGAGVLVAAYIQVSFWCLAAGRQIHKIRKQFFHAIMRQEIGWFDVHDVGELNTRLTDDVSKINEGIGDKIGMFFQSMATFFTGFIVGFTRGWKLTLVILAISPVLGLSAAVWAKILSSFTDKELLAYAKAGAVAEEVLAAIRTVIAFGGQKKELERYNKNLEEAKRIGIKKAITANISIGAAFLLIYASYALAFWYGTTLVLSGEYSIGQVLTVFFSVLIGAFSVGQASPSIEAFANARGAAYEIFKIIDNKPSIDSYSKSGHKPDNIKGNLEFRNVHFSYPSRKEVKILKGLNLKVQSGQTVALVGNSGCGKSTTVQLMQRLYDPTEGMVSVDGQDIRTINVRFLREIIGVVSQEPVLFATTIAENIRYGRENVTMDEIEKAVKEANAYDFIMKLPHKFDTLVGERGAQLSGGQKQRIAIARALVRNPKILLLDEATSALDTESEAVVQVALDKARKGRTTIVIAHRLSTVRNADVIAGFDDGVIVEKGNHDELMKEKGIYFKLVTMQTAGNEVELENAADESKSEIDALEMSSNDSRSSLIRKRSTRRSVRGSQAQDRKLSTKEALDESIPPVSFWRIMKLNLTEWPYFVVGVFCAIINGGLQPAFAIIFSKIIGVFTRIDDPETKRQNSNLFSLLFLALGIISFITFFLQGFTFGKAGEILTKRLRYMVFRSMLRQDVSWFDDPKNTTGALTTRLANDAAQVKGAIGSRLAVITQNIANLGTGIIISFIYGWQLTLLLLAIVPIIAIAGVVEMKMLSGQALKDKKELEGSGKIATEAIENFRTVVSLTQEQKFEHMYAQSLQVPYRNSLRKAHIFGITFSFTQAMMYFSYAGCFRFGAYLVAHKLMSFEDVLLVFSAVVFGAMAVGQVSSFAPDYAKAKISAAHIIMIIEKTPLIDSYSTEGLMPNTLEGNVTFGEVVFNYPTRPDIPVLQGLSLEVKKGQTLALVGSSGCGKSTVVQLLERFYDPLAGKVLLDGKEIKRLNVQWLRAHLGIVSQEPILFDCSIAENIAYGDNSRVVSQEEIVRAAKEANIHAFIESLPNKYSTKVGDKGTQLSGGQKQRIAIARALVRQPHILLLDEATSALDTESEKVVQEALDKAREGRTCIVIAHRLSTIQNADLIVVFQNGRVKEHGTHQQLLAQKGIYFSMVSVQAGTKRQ

With COc1cc2nc(N3CCCN(C(=O)N4CCOCC4)CC3)cc(N)c2c(-c2ccc(F)cc2)c1OC the Activity was “substrate [+]”.
